Results on 43 molecules are retold here after US10676429B2, “Sulfamoyl-arylamides and the use thereof as medicaments for the treatment of hepatitis B” (priority 2012, dated 2020).

Data set [1] deals with HBV. As to the kind of experiment: Anti-HBV activity in stable transfected HepG2.2.15 cell line (HBV DNA from secreted virions, realtime PCR). In kind it is cell-based. To be noted: Hepatitis B virus, HepG2.2.15, 144 h.
Data set [2] has as its system HBV. As to the kind of experiment: Anti-HBV activity in HepG2.117 cell line (Tet-off, intracellular HBV DNA, realtime PCR). It is filed as cell-based. To be noted: Hepatitis B virus, HepG2.117, 72 h.
Data set [3] in a line: Cytotoxicity in HepG2 cells, 4 days, Resazurin assay. To be noted: human, HepG2 cells. Background: Alamar Blue is a resazurin reagent that responds to reducing activity.
Where [4] appears, read: HepG2.2.15 cells, 6 days of treatment, secreted virion HBV DNA, read-out: HepG2 2.15 EC50.
[5] abbreviates: HepG2.117 cells, 3 days of treatment, intracellular HBV DNA, read-out: HepG2 117 EC50.

Where only a bound is given, the exact number is not on record here.

As usually defined, the EC50 is the midpoint of the concentration-response curve. The term CC50 denotes the concentration that lowers cell viability or growth by half. Lower therefore signals greater toxicity to the cells. Consider `Cc1cc(NC(=O)c2cccc(S(=O)(=O)N[C@H]3CCC[C@H]3O)c2)ccc1F` [Compound 139], for which the EC50 in the data set on HBV [1] (setting [4]) worked out at 1 µM; in the data set with HBV [2] (setting [5]), 1.75 µM. In addition, the CC50 at 4 days in data set [3] is > 25 µM.
In the case of `Cc1cc(NC(=O)c2cccc(S(=O)(=O)NC3CCS(=O)(=O)C3)c2)ccc1F` (stereo not drawn) [Compound 140], the EC50 in the data set with HBV [1] (setting [4]) is 1.1 µM; in the data set with HBV [2] (setting [5]), 1.12 µM. The CC50 at 4 days in data set [3] is > 25 µM.
In the same order, the values of `Cc1cc(NC(=O)c2cccc(S(=O)(=O)NC3Cc4ccccc4C3O)c2)ccc1F` (stereo not drawn) [Compound 141] are 0.36 µM, 0.6 µM and > 25 µM.
On the same counts, the results for `Cc1cc(NC(=O)c2cccc(S(=O)(=O)N[C@H](C)[C@H](O)c3ccccc3)c2)ccc1F` [Compound 142] are 0.14 µM, 0.56 µM and > 25 µM.
On the same counts, the results for `Cc1cc(NC(=O)c2cccc(S(=O)(=O)N[C@@H](C)[C@H](O)c3ccccc3)c2)ccc1F` [Compound 143] are 0.91 µM, 2.66 µM and > 25 µM.
With `Cc1cc(NC(=O)c2cccc(S(=O)(=O)N[C@H](C)[C@@H](O)c3ccccc3)c2)ccc1F` [Compound 144], the values for the EC50 in the data set with HBV [1] (setting [4]) and with HBV [2] (setting [5]) were 0.13 µM and 0.24 µM, respectively. In addition, the CC50 at 4 days in data set [3] was > 25 µM.
On the same counts, the results for `Cc1cc(NC(=O)c2cccc(S(=O)(=O)NC3CCC(O)C3)c2)ccc1F` (stereo not drawn) [Compound 145] are 0.22 µM, 0.27 µM and > 25 µM.
As for `Cc1cc(NC(=O)c2cccc(S(=O)(=O)N3CC4(CCOC4)C3)c2)ccc1F` [Compound 146], the EC50 in the data set with HBV [1] (setting [4]) turned out to be 0.45 µM; with HBV [2] (setting [5]), 0.42 µM. Besides, the CC50 at 4 days in data set [3] was > 25 µM.
Turning to `Cc1cc(NC(=O)c2cccc(S(=O)(=O)N3CCC34COC4)c2)ccc1F` [Compound 147], the values for the EC50 in the data set on HBV [1] (setting [4]) and in the data set on HBV [2] (setting [5]) were 0.26 µM and 0.15 µM, respectively. In addition, the CC50 at 4 days in data set [3] was > 25 µM.
In the same order, the values of `Cc1cc(NC(=O)c2cccc(S(=O)(=O)N[C@@H](C)C3CCCCC3)c2)ccc1F` [Compound 148] are 0.9 µM, 3.11 µM and 18.2 µM.
In the same order, the values of `Cc1cc(NC(=O)c2cccc(S(=O)(=O)NC3CCC(F)(F)CC3)c2)ccc1F` [Compound 149] are 0.22 µM, 0.73 µM and 20.8 µM.
With `C=CC(C)NS(=O)(=O)c1cccc(C(=O)Nc2ccc(F)c(C)c2)c1` (stereo not drawn) [Compound 150], the EC50 in the data set with HBV [1] (setting [4]) was found to be 0.1 µM; in the data set with HBV [2] (setting [5]) it was 0.73 µM. In addition, the CC50 at 4 days in data set [3] is > 25 µM.
In the same order, the values of `Cc1cc(NC(=O)c2cccc(S(=O)(=O)N[C@@H](C)C(C)C)c2)ccc1F` [Compound 151] are 0.66 µM, 2.74 µM and > 25 µM.
In the same order, the values of `Cc1cc(NC(=O)c2cccc(S(=O)(=O)N[C@H](C)C3CC3)c2)ccc1F` [Compound 152] are < 0.1 µM, 0.57 µM and > 25 µM.
On the same counts, the results for `Cc1cc(NC(=O)c2cccc(S(=O)(=O)NC(C)CCc3ccccc3)c2)ccc1F` (stereo not drawn) [Compound 153] are 0.22 µM, 0.25 µM and > 25 µM.
`Cc1cc(NC(=O)c2cccc(S(=O)(=O)NC3CCCN(C(=O)OC(C)(C)C)C3)c2)ccc1F` (stereo not drawn) [Compound 155]: the results for the EC50 in the data set on HBV [1] (setting [4]) and in the data set with HBV [2] (setting [5]) were 0.36 µM and 0.81 µM, respectively. In data set [3], the CC50 at 4 days was > 25 µM.
Consider `Cc1cc(NC(=O)c2cccc(S(=O)(=O)NC3CCN(C(=O)OC(C)(C)C)C3)c2)ccc1F` (stereo not drawn) [Compound 156], for which the values for the EC50 in the data set with HBV [1] (setting [4]) and in the data set with HBV [2] (setting [5]) were 0.19 µM and 0.21 µM, respectively. Besides, the CC50 at 4 days in data set [3] is > 25 µM.
In the same order, the values of `COC(=O)N1CC(C)(NS(=O)(=O)c2cccc(C(=O)Nc3ccc(F)c(C)c3)c2)C1` [Compound 157] are 0.13 µM, 0.23 µM and > 25 µM.
On the same counts, the results for `COC(=O)N1CCC(NS(=O)(=O)c2cccc(C(=O)Nc3ccc(F)c(C)c3)c2)C1` (stereo not drawn) [Compound 158] are 0.15 µM, 0.5 µM and > 25 µM.
Regarding `CC1(NS(=O)(=O)c2cccc(C(=O)Nc3ccc(F)c(Br)c3)c2)COC1` [Compound 160, N-(3-bromo-4-fluoro-phenyl)-3-[(3-methyloxetan-3-yl)sulfamoyl]benzamide], the EC50 with HBV [1] (setting [4]) is 0.2 µM; in the data set with HBV [2] (setting [5]), 0.69 µM. Besides, the CC50 at 4 days in data set [3] is > 25 µM.
On the same counts, the results for `Cc1cc(NC(=O)c2cccc(S(=O)(=O)NC(C)c3ccncc3)c2)ccc1F` (stereo not drawn) [Compound 161] are 0.2 µM, 0.35 µM and > 25 µM.
In the same order, the values of `Cc1cc(NC(=O)c2cccc(S(=O)(=O)NC(C)c3cccnc3)c2)ccc1F` (stereo not drawn) [Compound 162] are 0.17 µM, 1.26 µM and > 25 µM.
In the same order, the values of `Cc1cc(NC(=O)c2cccc(S(=O)(=O)NC(C)c3ccccn3)c2)ccc1F` (stereo not drawn) [Compound 163] are 0.53 µM, 8.53 µM and > 25 µM.
On to `Cc1cc(NC(=O)c2cccc(S(=O)(=O)NC(C)C3CCN(C)CC3)c2)ccc1F` (stereo not drawn) [Compound 164], for which the EC50 with HBV [1] (setting [4]) came out at 3.71 µM; in the data set on HBV [2] (setting [5]) it was 0.97 µM. In data set [3], the CC50 at 4 days is > 25 µM.
For `Cc1cc(NC(=O)c2cccc(S(=O)(=O)NC(C)CCN3CCOCC3)c2)ccc1F` (stereo not drawn) [Compound 165], the EC50 with HBV [1] (setting [4]) worked out at 0.71 µM; in the data set with HBV [2] (setting [5]), 0.36 µM. Also, in data set [3], the CC50 at 4 days is > 25 µM.
Regarding `Cc1cc(NC(=O)c2cccc(S(=O)(=O)N[C@H](C)c3ccccc3)c2)ccc1F` [Compound 166], the EC50 was 0.19 µM with HBV [1] (setting [4]) and 2.39 µM in the data set with HBV [2] (setting [5]). Also, in data set [3], the CC50 at 4 days was found to be 14.6 µM.
Take `Cc1cc(NC(=O)c2cccc(S(=O)(=O)N[C@@H](C)c3ccccc3)c2)ccc1F` [Compound 167]: the values for the EC50 in the data set on HBV [1] (setting [4]) and with HBV [2] (setting [5]) were 0.62 µM and 9.84 µM, respectively. For the same molecule, the CC50 at 4 days in data set [3] is > 25 µM.
In the same order, the values of `Cc1cc(NC(=O)c2cccc(S(=O)(=O)NC3Cc4ccccc4C3)c2)ccc1F` [Compound 168] are 0.27 µM, 0.37 µM and 11.8 µM.
Consider `Cc1cc(NC(=O)c2cccc(S(=O)(=O)NC(C)Cc3ccccc3)c2)ccc1F` (stereo not drawn) [Compound 169], for which the EC50 with HBV [1] (read-out: HepG2 2.15 EC50 (μM)) is 0.24 µM; in the data set with HBV [2] (read-out: HepG2 117 EC50 (μM)), 1.41 µM. The molecule further returned a CC50 at 4 days in data set [3] of 14.9 µM.
`Cc1cc(NC(=O)c2cccc(S(=O)(=O)NCCC3CC3)c2)ccc1F` [Compound 170]: the EC50 in the data set on HBV [1] (setting [4]) came to 0.26 µM; in the data set with HBV [2] (setting [5]), 0.45 µM. Further, the CC50 at 4 days in data set [3] is > 25 µM.
Regarding `Cc1cc(NC(=O)c2cccc(S(=O)(=O)NC3COCC3O)c2)ccc1F` (stereo not drawn) [Compound 171], the EC50 with HBV [1] (setting [4]) was 0.79 µM; with HBV [2] (setting [5]) it was 4.39 µM. In addition, the CC50 at 4 days in data set [3] is > 25 µM.
On the same counts, the results for `Cc1cc(NC(=O)c2cccc(S(=O)(=O)N[C@@H]3CCC[C@@H]3O)c2)ccc1F` [Compound 172] are 0.26 µM, 0.61 µM and > 25 µM.
Regarding `Cc1cc(NC(=O)c2cccc(S(=O)(=O)N[C@@H]3CCC[C@H]3O)c2)ccc1F` [Compound 173], the EC50 stood at 0.37 µM in the data set with HBV [1] (setting [4]) and 0.36 µM in the data set with HBV [2] (setting [5]). Also, the CC50 at 4 days in data set [3] was > 25 µM.
In the same order, the values of `Cc1cc(NC(=O)c2cccc(S(=O)(=O)N[C@@H](C)C3CC3)c2)ccc1F` [Compound 174] are 0.47 µM, 2.84 µM and > 25 µM.
Take `Cc1cc(NC(=O)c2cccc(S(=O)(=O)N[C@@H]3c4ccccc4C[C@H]3O)c2)ccc1F` [Compound 175]: the EC50 came out at 0.23 µM in the data set with HBV [1] (setting [4]) and 0.15 µM in the data set with HBV [2] (setting [5]). For the same molecule, the CC50 at 4 days in data set [3] was > 25 µM.
In the same order, the values of `Cc1cc(NC(=O)c2cccc(S(=O)(=O)N[C@H]3c4ccccc4C[C@@H]3O)c2)ccc1F` [Compound 176] are 0.62 µM, 0.56 µM and > 25 µM.
As to `Cc1cc(NC(=O)c2cccc(S(=O)(=O)N[C@H]3c4ccccc4C[C@H]3O)c2)ccc1F` [Compound 177], the values for the EC50 in the data set with HBV [1] (setting [4]) and in the data set on HBV [2] (setting [5]) were 0.77 µM and 0.72 µM, respectively. Moreover, the CC50 at 4 days in data set [3] was > 25 µM.
On the same counts, the results for `Cc1cc(NC(=O)c2cccc(S(=O)(=O)N[C@@H]3CCc4ccccc4[C@H]3O)c2)ccc1F` [Compound 178] are 0.75 µM, 2.54 µM and > 25 µM.
In the same order, the values of `Cc1cc(NC(=O)c2cccc(S(=O)(=O)NC3CCC(=O)N(C)C3)c2)ccc1F` (stereo not drawn) [Compound 180] are 0.76 µM, 1.3 µM and > 25 µM.
On the same counts, the results for `Cc1cc(NC(=O)c2cccc(S(=O)(=O)NC3CCN(C)C3=O)c2)ccc1F` (stereo not drawn) [Compound 181] are 2.59 µM, 2.04 µM and > 25 µM.
Consider `Cc1cc(NC(=O)c2cccc(S(=O)(=O)NC3CN(C(=O)OC(C)(C)C)C3)c2)ccc1F` [Compound 182], for which the EC50 with HBV [1] (setting [4]) worked out at 0.31 µM; in the data set with HBV [2] (setting [5]), 0.88 µM. The CC50 at 4 days in data set [3] was > 25 µM.
On the same counts, the results for `Cc1cc(NC(=O)c2cccc(S(=O)(=O)NC3(C(F)(F)F)CC3)c2)ccc1F` [Compound 183] are 0.08 µM, 0.84 µM and > 25 µM.
Regarding `Cc1cc(NC(=O)c2cccc(S(=O)(=O)NC3CC(O)C3)c2)ccc1F` (stereo not drawn) [Compound 184], the EC50 in the data set with HBV [1] (setting [4]) was found to be 0.15 µM; in the data set with HBV [2] (setting [5]), 0.4 µM. The CC50 at 4 days in data set [3] was > 25 µM.
